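Cells were grown in 96-well plates and exposed to each compound for 48 hours at five concentrations; endpoints were interpolated linearly between bracketing concentrations, or set to the highest concentration if not reached. TGI denotes the concentration required for complete inhibition of growth.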
Legend:
Experiment in all cases: inhibition of tumour cell growth, NCI panel, 48 h
CAKI-1 renal = test system: CAKI-1 renal
A549 NSCLC = test system: A549 NSCLC
EKVX NSCLC = test system: EKVX NSCLC
HCC-2998 colon = test system: HCC-2998 colon
NCI-H522 lung = test system: NCI-H522 lung
RPMI-8226 leukemia = test system: RPMI-8226 leukemia
SNB-75 CNS = test system: SNB-75 CNS
HCT-15 colon = test system: HCT-15 colon
SNB-19 CNS = test system: SNB-19 CNS
NCI-H226 lung = test system: NCI-H226 lung

| SMILES | TGI (CAKI-1 renal) [µM] | TGI (A549 NSCLC) [µM] | TGI (EKVX NSCLC) [µM] | TGI (HCC-2998 colon) [µM] | TGI (NCI-H522 lung) [µM] | TGI (RPMI-8226 leukemia) [µM] | TGI (SNB-75 CNS) [µM] | TGI (HCT-15 colon) [µM] | TGI (SNB-19 CNS) [µM] | TGI (NCI-H226 lung) [µM] |
| --- | --- | --- | --- | --- | --- | --- | --- | --- | --- | --- |
| Cc1cc(-c2[nH]c(C(=O)O)cc2I)on1 | > 100 | > 100 | > 100 | > 100 | > 100 | > 100 | > 100 | > 100 | > 100 |  |
| O=C(/C=C/c1cccc(Br)c1)c1cccs1 | 32.6 | 36.2 | 37.4 | 61.3 |  | 5.42 | 28.2 | 35.8 | 28.3 | 32.7 |
| COc1ccc2[nH]c(Cl)c(/C=C3/C(=O)Nc4cc(C)c(OC)cc43)c2c1 | 21.7 | 92.6 | 22.7 | 17.2 | 9.62 | > 100 | 23.4 | 12.9 | 22.2 |  |
| CCC1C(c2cccc(OC)c2O)c2cc3c(cc2OC1N1CCCC1)OCO3 (centres undefined) |  | 54.7 | > 100 | 21.9 | 35.4 | 34 | 92.4 | 40.3 | 46.9 |  |
| COC(=O)c1cc(NC(=O)c2cc(NC(=O)c3cc([N+](=O)[O-])cn3C)cn2C)cn1C | > 100 | > 100 | > 100 |  |  | > 100 | > 100 | > 100 | > 100 | > 100 |
| CN(C(=O)Cc1ccc(Cl)c(Cl)c1)[C@H]1CCCC[C@@H]1[N+]1(C)CCCC1 | > 100 | > 100 | > 100 |  | > 100 | > 100 |  | > 100 | > 100 | > 100 |
| Cn1c(C(C#N)c2nc(Cl)ncc2Br)nc2ccccc21 (centres undefined) | > 100 | > 100 | > 100 |  | > 100 | > 100 | > 100 | > 100 | > 100 | > 100 |
| Cc1ccc(OCC2OC(n3cnc4c(N(C)C)nc(Br)nc43)CC2Oc2ccc(C)cc2)cc1 (centres undefined) | > 100 | > 100 | > 100 | > 100 | > 100 | > 100 |  | > 100 | > 100 | > 100 |
| COC(=O)/C=C(\C)C(=O)N(C)c1ccccc1I | > 100 | > 100 | > 100 | > 100 |  | > 100 | > 100 | > 100 | > 100 | > 100 |
| Cc1ccsc1/C=N/Nc1cc(C)c2cccc(C)c2n1 | > 100 | > 100 | > 100 | > 100 |  |  | > 100 |  | > 100 | > 100 |
| CC(C)C(C/C=C1\CC(CO)(COC(=O)c2ccccc2)OC1=O)C(C)C (centres undefined) | 33.8 | 30.5 | 29.8 | 44.8 | 38.5 |  | 29.1 | 41 | 31.8 | 39.8 |

From PubChem BioAssay (NCI)
